Experimental data taken from ChEMBL document CHEMBL1123652, “Optimization and in vivo evaluations of a series of small, potent, and specific renin inhibitors containing a novel Leu-Val replacement” (J Med Chem, 1987).

What was measured:
Renin = biological target: T1, Renin (Homo sapiens, UniProt P00797); experiment: Evaluated in vitro for inhibitory potency against renin.
T1 sequence (P00797 whole entry): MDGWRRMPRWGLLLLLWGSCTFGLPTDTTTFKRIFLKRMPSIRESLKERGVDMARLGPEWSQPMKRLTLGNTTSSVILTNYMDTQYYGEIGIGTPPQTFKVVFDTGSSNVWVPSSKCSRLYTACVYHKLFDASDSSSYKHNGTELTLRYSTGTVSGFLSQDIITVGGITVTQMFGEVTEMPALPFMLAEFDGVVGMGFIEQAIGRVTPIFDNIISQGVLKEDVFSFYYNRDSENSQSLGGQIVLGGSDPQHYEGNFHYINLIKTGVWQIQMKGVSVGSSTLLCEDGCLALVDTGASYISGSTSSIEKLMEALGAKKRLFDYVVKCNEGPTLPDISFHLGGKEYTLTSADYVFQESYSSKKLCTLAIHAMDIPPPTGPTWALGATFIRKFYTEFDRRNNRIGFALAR

Pepsin A (Sus scrofa) [1] = biological target: Pepsin A (Sus scrofa) (UniProt P00791); experiment: Evaluated for the percentage of inhibition of porcine pepsin at E-5M concentration
Cathepsin D (Bos taurus) [2] = biological target: T2, Cathepsin D (Bos taurus) (UniProt P80209); experiment: Evaluated for the percentage of inhibition of bovine cathepsin D at E-5M concentration
T2 sequence (whole entry): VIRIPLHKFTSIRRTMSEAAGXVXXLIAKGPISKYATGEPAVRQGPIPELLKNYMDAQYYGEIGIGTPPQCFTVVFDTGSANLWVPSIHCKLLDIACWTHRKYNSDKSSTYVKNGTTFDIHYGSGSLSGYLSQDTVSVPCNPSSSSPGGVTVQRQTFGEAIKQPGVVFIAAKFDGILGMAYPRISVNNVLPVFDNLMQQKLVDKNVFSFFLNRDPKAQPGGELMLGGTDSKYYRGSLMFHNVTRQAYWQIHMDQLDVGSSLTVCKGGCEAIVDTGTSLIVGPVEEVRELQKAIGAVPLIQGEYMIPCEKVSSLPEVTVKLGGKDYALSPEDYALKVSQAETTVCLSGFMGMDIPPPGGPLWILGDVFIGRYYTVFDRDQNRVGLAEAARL

Renin (Homo sapiens) [3] = biological target: T3, Renin (Homo sapiens) (UniProt P00797); experiment: Evaluated in vitro for inhibitory potency against renin at 10e-6 M
T3 sequence (whole entry): T1 sequence (P00797 whole entry)

Pepsin A (Sus scrofa) [4] = biological target: Pepsin A (Sus scrofa) (UniProt P00791); experiment: Compound is evaluated for the percentage of inhibition of […] 10 e-5M concentration in porcine pepsin
Cathepsin D (Bos taurus) [5] = biological target: T2, Cathepsin D (Bos taurus); experiment: Compound is evaluated for the percentage of inhibition of […] 10e-5 M concentration in, bovine cathepsin D
Renin (Homo sapiens) [6] = biological target: T3, Renin (Homo sapiens); experiment: Evaluated in vitro for inhibitory potency against renin at 10e-5 M

Pepsin A (Sus scrofa), sequence (P00791 60-385 limits assumed): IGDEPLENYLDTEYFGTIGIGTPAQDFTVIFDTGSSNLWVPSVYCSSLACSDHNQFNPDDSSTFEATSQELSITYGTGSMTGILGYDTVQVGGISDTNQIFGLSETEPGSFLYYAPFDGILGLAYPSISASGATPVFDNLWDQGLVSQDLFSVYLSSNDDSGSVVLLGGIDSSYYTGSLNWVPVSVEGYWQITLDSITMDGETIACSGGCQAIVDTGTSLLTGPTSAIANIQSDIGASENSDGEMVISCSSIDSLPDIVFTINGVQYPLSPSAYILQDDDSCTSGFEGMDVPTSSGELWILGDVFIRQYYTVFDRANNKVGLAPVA

| SMILES | IC50 (Renin) [nM] | inhibition (Pepsin A (Sus scrofa) [1]) [%] | inhibition (Cathepsin D (Bos taurus) [2]) [%] | also measured |
| --- | --- | --- | --- | --- |
| O=C(NC(Cc1cnc[nH]1)C(=O)N[C@@H](CC1CCCCC1)[C@@H](O)CS(=O)(=O)C1CCCCC1)C(Cc1ccccc1)Cc1ccccc1 (stereo not given in full) | 40 |  |  |  |
| CC(C)CC(NC(=O)C(Cc1ccccc1)Cc1ccccc1)C(=O)N[C@@H](CC1CCCCC1)[C@@H](O)CS(=O)(=O)C(C)C (stereo not given in full) | 25 |  |  |  |
| O=C(NC(Cc1c[nH]cn1)C(=O)N[C@@H](CC1CCCCC1)[C@@H](O)CSC1CCCCC1)C(Cc1ccccc1)Cc1ccccc1 (stereo not given in full) |  | 0 | 0 |  |
| CC(C)S(=O)(=O)C[C@H](O)[C@H](CC1CCCCC1)NC(=O)C(Cc1c[nH]cn1)NC(=O)[C@@H](Cc1ccccc1)NC(=O)OC(C)(C)C (stereo not given in full) | 150 | 0 | 0 |  |
| CC(C)S(=O)(=O)C[C@H](O)[C@H](CC1CCCCC1)NC(=O)[C@H](CCCN)NC(=O)[C@H](Cc1ccccc1)NC(=O)OC(C)(C)C |  |  |  | inhibition (Renin (Homo sapiens) [3]): 43% |
| CC(C)S(=O)(=O)C[C@H](O)[C@H](CC1CCCCC1)NC(=O)C(Cc1c[nH]cn1)NC(=O)C(Cc1ccccc1)Cc1ccccc1 (stereo not given in full) |  | 0 | 0 |  |
| O=C(NC(Cc1cnc[nH]1)C(=O)N[C@@H](CC1CCCCC1)[C@@H](O)CSC1CCCCC1)C(Cc1ccccc1)Cc1ccccc1 (stereo not given in full) | 20 |  |  |  |
| CSC[C@H](O)[C@H](CC1CCCCC1)NC(=O)[C@H](Cc1c[nH]cn1)NC(=O)[C@H](Cc1ccccc1)NC(=O)OC(C)(C)C | 10 |  |  |  |
| CC(C)C(=O)N[C@H](C(=O)N[C@@H](Cc1c[nH]cn1)C(=O)N[C@@H](CC1CCCCC1)[C@@H](O)CS(=O)(=O)C(C)C)[C@@H](C)OCc1ccccc1 | 10 |  |  |  |
| CC(C)(C)OC(=O)N[C@@H](Cc1ccccc1)C(=O)N[C@@H](Cc1c[nH]cn1)C(=O)N[C@@H](CC1CCCCC1)[C@H](O)CSC1CCCCC1 | 100 |  |  |  |
| CC(C)S(=O)(=O)C[C@H](O)[C@H](CC1CCCCC1)NC(=O)[C@H](CCCCN)NC(=O)[C@H](Cc1ccccc1)NC(=O)OC(C)(C)C |  |  |  | inhibition (Renin (Homo sapiens) [3]): 34% |
| CC(C)(C)OC(=O)N[C@@H](Cc1ccccc1)C(=O)N[C@@H](Cc1c[nH]cn1)C(=O)N[C@@H](CC1CCCCC1)[C@@H](O)CS(C)(=O)=O | 40 |  |  |  |
| CC(C)S(=O)(=O)C[C@H](O)[C@H](CC1CCCCC1)NC(=O)[C@H](Cc1ccccc1)NC(=O)[C@H](Cc1ccccc1)NC(=O)OC(C)(C)C | 30 | 4 | 0 |  |
| O=C(COc1ccccc1)NC(Cc1c[nH]cn1)C(=O)N[C@@H](CC1CCCCC1)[C@@H](O)CSC1CCCCC1 (stereo not given in full) | 430 |  |  |  |
| CC(C)S(=O)(=O)C[C@H](O)[C@H](CC1CCCCC1)NC(=O)[C@H](Cc1c[nH]cn1)NC(=O)[C@@H](N)[C@@H](C)OCc1ccccc1 | 300 |  |  |  |
| CC(C)(C)OC(=O)NC(Cc1c[nH]cn1)C(=O)N[C@@H](CC1CCCCC1)[C@@H](O)CS(=O)(=O)C1CCCCC1 (stereo not given in full) |  |  |  | inhibition (Renin (Homo sapiens) [6]): 5% |
| CC(C)S(=O)(=O)C[C@H](O)[C@H](CC1CCCCC1)NC(=O)C(Cc1cnc[nH]1)NC(=O)C(Cc1ccccc1)Cc1ccccc1 (stereo not given in full) | 70 |  |  |  |
| CC(C)S(=O)(=O)C[C@H](O)[C@H](CC1CCCCC1)NC(=O)[C@H](Cc1c[nH]cn1)NC(=O)[C@H](Cc1ccccc1)NC(=O)CC(C)(C)C [listing 1 of 3 here] |  | 0 | 0 |  |
| CC(C)S(=O)(=O)C[C@H](O)[C@H](CC1CCCCC1)NC(=O)[C@H](C)NC(=O)[C@H](Cc1ccccc1)NC(=O)OC(C)(C)C | 70 | 0 | 55 |  |
| CCOC(=O)N[C@H](C(=O)N[C@@H](Cc1c[nH]cn1)C(=O)N[C@@H](CC1CCCCC1)[C@@H](O)CS(=O)(=O)C(C)C)[C@@H](C)OCc1ccccc1 | 20 |  |  |  |
| CC(C)S(=O)(=O)C[C@H](O)[C@H](CC1CCCCC1)NC(=O)[C@H](CCO)NC(=O)[C@H](Cc1ccccc1)NC(=O)OC(C)(C)C | 20 |  |  |  |
| CC(C)SC[C@H](O)[C@H](CC1CCCCC1)NC(=O)[C@H](C)NC(=O)[C@H](Cc1ccccc1)NC(=O)OC(C)(C)C | 9.9 |  |  |  |
| CC(C)S(=O)(=O)C[C@H](O)[C@H](CC1CCCCC1)NC(=O)[C@H](CCCCNC(=O)OCc1ccccc1)NC(=O)[C@H](Cc1ccccc1)NC(=O)OC(C)(C)C | 100 |  |  |  |
| CC(=O)NCCCC[C@H](NC(=O)[C@H](Cc1ccccc1)NC(=O)OC(C)(C)C)C(=O)N[C@@H](CC1CCCCC1)[C@@H](O)CS(=O)(=O)C(C)C | 300 |  |  |  |
| CC(C)(C)OC(=O)N[C@@H](Cc1ccccc1)C(=O)N[C@@H](Cc1c[nH]cn1)C(=O)N[C@@H](Cc1ccccc1)[C@@H](O)CSC1CCCCC1 | 15 | 4 | 0 |  |
| CC(C)S(=O)(=O)C[C@H](O)[C@H](CC1CCCCC1)NC(=O)[C@H](CO)NC(=O)[C@H](Cc1ccccc1)NC(=O)OC(C)(C)C | 40 | 0 | 47 |  |
| CC(C)S(=O)(=O)C[C@H](O)[C@H](CC1CCCCC1)NC(=O)[C@H](Cc1c[nH]cn1)NC(=O)[C@H](COCc1ccccc1)NC(=O)OC(C)(C)C | 75 |  |  |  |
| CC(C)S(=O)(=O)C[C@H](O)[C@H](CC1CCCCC1)NC(=O)[C@H](CCCNC(=O)OCc1ccccc1)NC(=O)[C@H](Cc1ccccc1)NC(=O)OC(C)(C)C | 60 |  |  |  |

Second part, led by results:

| IC50 (Renin) [nM] | inhibition (Pepsin A (Sus scrofa) [1]) [%] | inhibition (Cathepsin D (Bos taurus) [2]) [%] | SMILES | also measured |
| --- | --- | --- | --- | --- |
| 4 |  |  | CC(C)C[C@H](NC(=O)[C@H](Cc1ccccc1)NC(=O)OC(C)(C)C)C(=O)N[C@@H](CC1CCCCC1)[C@@H](O)CS(=O)(=O)C(C)C |  |
| 8 |  |  | CC(C)S(=O)(=O)C[C@H](O)[C@H](CC1CCCCC1)NC(=O)[C@@H](NC(=O)[C@H](Cc1ccccc1)NC(=O)OC(C)(C)C)[C@@H](C)O |  |
| 6 | 18 | 95 | CC(C)S(=O)(=O)C[C@H](O)[C@H](CC1CCCCC1)NC(=O)[C@@H](NC(=O)[C@H](Cc1ccccc1)NC(=O)OC(C)(C)C)[C@@H](C)OCc1ccccc1 |  |
| 3 | 0 | 0 | COc1ccc(C[C@H](NC(=O)OC(C)(C)C)C(=O)N[C@@H](Cc2c[nH]cn2)C(=O)N[C@@H](CC2CCCCC2)[C@@H](O)CS(=O)(=O)C(C)C)cc1 |  |
| 4 |  |  | CC(C)SC[C@H](O)[C@H](CC1CCCCC1)NC(=O)[C@H](Cc1c[nH]cn1)NC(=O)[C@H](Cc1ccccc1)NC(=O)OC(C)(C)C | inhibition (Pepsin A (Sus scrofa) [4]): 0%; inhibition (Cathepsin D (Bos taurus) [5]): 0% |
| 5 |  |  | CCOC(=O)N[C@@H](Cc1ccccc1)C(=O)N[C@@H](Cc1c[nH]cn1)C(=O)N[C@@H](CC1CCCCC1)[C@@H](O)CS(=O)(=O)C(C)C |  |
| 3.5 |  |  | CC(C)S(=O)(=O)C[C@H](O)[C@H](CC1CCCCC1)NC(=O)[C@H](Cc1c[nH]cn1)NC(=O)[C@H](Cc1ccccc1)NC(=O)CC(C)(C)C [listing 2 of 3 here] |  |
| 2 | 0 | 0 | CC(C)S(=O)(=O)C[C@H](O)[C@H](CC1CCCCC1)NC(=O)[C@H](Cc1c[nH]cn1)NC(=O)[C@H](Cc1ccccc1)NC(=O)OC(C)(C)C |  |
| 5.5 | 0 | 0 | CC(C)S(=O)(=O)C[C@H](O)[C@H](CC1CCCCC1)NC(=O)[C@H](Cc1c[nH]cn1)NC(=O)[C@@H](NC(=O)OC(C)(C)C)[C@@H](C)OCc1ccccc1 |  |
| 3 |  |  | CC(C)S(=O)(=O)C[C@H](O)[C@H](CC1CCCCC1)NC(=O)[C@H](Cc1c[nH]cn1)NC(=O)[C@H](Cc1ccccc1)NC(=O)CC(C)(C)C [listing 3 of 3 here] |  |
| 4 |  |  | CC(C)(C)OC(=O)N[C@@H](Cc1ccccc1)C(=O)N[C@@H](Cc1c[nH]cn1)C(=O)N[C@@H](CC1CCCCC1)[C@@H](O)CSC1CCCCC1 | inhibition (Pepsin A (Sus scrofa) [4]): 9%; inhibition (Cathepsin D (Bos taurus) [5]): 0% |
| 6.5 |  |  | CC(C)CSC[C@H](O)[C@H](CC1CCCCC1)NC(=O)[C@H](Cc1c[nH]cn1)NC(=O)[C@H](Cc1ccccc1)NC(=O)OC(C)(C)C |  |
